Where “and” joins values, the source holds several entries; their conditions need not be identical. Equal entries are not always repeated. Where two headings read alike, the source gives them in different places.
Test system: T. brucei lysate proteins
Format: binding, Trypanosoma brucei

In the case of `Nc1nc2c(c(=O)[nH]1)N(C=O)C(CNc1ccc(C(=O)N[C@@H](CCC(=O)O)C(=O)O)cc1)CN2` (stereo partly drawn) [LEU, leucovorin], the “fold change vs vehicle control” value is reported as 0.89 and 1.1 and 1.13, the fold change (protein CZB00000046.1 HA-UBIQUITIN, vehicle control = 1) is reported as 0.69 and the fold change (protein CZT00008884.1 […]-ASSOCIATED GENE 3 (ESAG3) PROTEIN, vehicle control = 1) is reported as 1.21. For the same compound, the fold change (protein CZT00018965.1 RETRO[…] (RHS) PROTEIN 1, vehicle control = 1) was 1.3, the “fold change vs vehicle control” value (protein TB09.160.3270 ATP-DEPENDENT DEAD BOX HELICASE, PUTATIVE, vehicle control = 1) was 1.53 and the fold change (protein TB09.160.3710 PRO[…] NUCLEAR ANTIGEN (PCNA), PUTATIVE, vehicle control = 1) was 1. For the same compound, the “fold change vs vehicle control” value (protein TB09.160.4200 60S ACIDIC RIBOSOMAL PROTEIN, PUTATIVE, vehicle control = 1) was 1.11, the “fold change vs vehicle control” value (protein TB09.160.4250 TR[…], vehicle control = 1) was 1.26 and the fold change (protein TB09.211.3540 GLYCEROL KINASE, GLYCOSOMAL, vehicle control = 1) was 1.39. The fold change (protein TB11.01.0450 PROTEIN PHOSPHATASE 1, PUTATIVE, vehicle control = 1) was 0.92, the fold change (protein TB11.01.1690 HY[…], CONSERVED, vehicle control = 1) was 1.4 and the “fold change vs vehicle control” value (protein TB11.01.2560 40S RIBOSOMAL PROTEIN SA, PUTATIVE, vehicle control = 1) was 0.87. For the same compound, the fold change (protein TB11.01.3560 VACUOLAR ATP SYNTHASE SUBUNIT B, PUTATIVE, vehicle control = 1) was 0.9, the “fold change vs vehicle control” value (protein TB11.01.4370 HY[…], CONSERVED, vehicle control = 1) was 1.1 and the fold change (protein TB11.01.5350 PROFILIN, vehicle control = 1) was 1.27. For the same compound, the fold change (protein TB11.01.8740 PROTEIN PHOSPHATASE 4, PUTATIVE, vehicle control = 1) was 0.73, the “fold change vs vehicle control” value (protein TB11.02.1135 DYNEIN LIGHT CHAIN, PUTATIVE, vehicle control = 1) was 1.39 and the “fold change vs vehicle control” value (protein TB11.02.2040 HY[…], CONSERVED (ALBA-Domain Protein), vehicle control = 1) was 1.42. The “fold change vs vehicle control” value (protein TB11.02.2510 GUANINE NUCLEOTIDE-BINDING BETA SUBUNIT-LIKE PROTEIN, vehicle control = 1) was 0.98, the fold change (protein TB11.02.2960 MIT[…] PROTEIN, PUTATIVE, vehicle control = 1) was 0.69 and the “fold change vs vehicle control” value (protein TB11.02.4170 40S RIBOSOMAL PROTEIN S5, PUTATIVE, vehicle control = 1) was 1.44. The “fold change vs vehicle control” value (protein TB11.03.0250 C[…], vehicle control = 1) was 1.92, the “fold change vs vehicle control” value (protein TB11.03.0530 HY[…], CONSERVED (hy[…] SCD6.10), vehicle control = 1) was 0.99 and the “fold change vs vehicle control” value (protein TB427TMP.01.0480 HY[…], CONSERVED, vehicle control = 1) was 1.07. For the same compound, the fold change (protein TB427TMP.01.1470 60S RIBOSOMAL PROTEIN L10A, PUTATIVE, vehicle control = 1) was 0.96, the “fold change vs vehicle control” value (protein TB427TMP.01.1680 POLYUBIQUITIN, PUTATIVE, vehicle control = 1) was 1.44 and the fold change (protein TB427TMP.01.2460 HY[…], CONSERVED, vehicle control = 1) was 0.97. For the same compound, the “fold change vs vehicle control” value (protein TB427TMP.01.3370 […] PROTEIN, PUTATIVE, vehicle control = 1) was 1.11, the “fold change vs vehicle control” value (protein TB427TMP.01.4280 HY[…], CONSERVED, vehicle control = 1) was 1.18 and the fold change (protein TB427TMP.01.4650 HY[…], CONSERVED, vehicle control = 1) was 0.86. For the same compound, the “fold change vs vehicle control” value (protein TB427TMP.01.5680 HY[…], CONSERVED, vehicle control = 1) was 1.44, the “fold change vs vehicle control” value (protein TB427TMP.01.5690 DRBD4, vehicle control = 1) was 0.99 and the fold change (protein TB427TMP.01.5960 MIT[…] PROTEIN, PUTATIVE, vehicle control = 1) was 0.85. The fold change (protein TB427TMP.01.6180 HY[…], CONSERVED, vehicle control = 1) was 0.75, the “fold change vs vehicle control” value (protein TB427TMP.01.6890 SMALL GTPASE, PUTATIVE, vehicle control = 1) was 2.02 and the fold change (protein TB427TMP.01.7490 HY[…], CONSERVED, vehicle control = 1) was 0.86. The “fold change vs vehicle control” value (protein TB427TMP.01.7530 HY[…], CONSERVED, vehicle control = 1) was 1.1, the fold change (protein TB427TMP.01.8390 HY[…], CONSERVED, vehicle control = 1) was 0.84 and the fold change (protein TB427TMP.01.8570 DYNEIN LIGHT IN[…] D1BLIC, PUTATIVE, vehicle control = 1) was 0.9. It also gave a fold change (protein TB427TMP.02.0030 DYNEIN HEAVY CHAIN, PUTATIVE, vehicle control = 1) of 0.83, a fold change (protein TB427TMP.02.0460 NUCLEOPORIN, vehicle control = 1) of 0.84 and a fold change (protein TB427TMP.02.0760 DYNEIN HEAVY CHAIN, PUTATIVE, vehicle control = 1) of 0.55. For the same compound, the fold change (protein TB427TMP.02.4100 PRETRA[…], ALPHA SUBUNIT, PUTATIVE, vehicle control = 1) was 1.41, the “fold change vs vehicle control” value (protein TB427TMP.02.4300 HY[…], CONSERVED, vehicle control = 1) was 1.07 and the fold change (protein TB427TMP.02.4550 HY[…], CONSERVED, vehicle control = 1) was 0.97. The fold change (protein TB427TMP.02.5660 HY[…], CONSERVED, vehicle control = 1) was 0.76, the “fold change vs vehicle control” value (protein TB427TMP.02.5720 RIBONUCLEOSIDE-DIPHOSPHATE REDUCTASE LARGE CHAIN, vehicle control = 1) was 0.95 and the fold change (protein TB427TMP.03.0150 HY[…], CONSERVED, vehicle control = 1) was 0.88. For the same compound, the fold change (protein TB427TMP.160.2370 HY[…], CONSERVED, vehicle control = 1) was 0.95, the fold change (protein TB427TMP.160.4310 GLUTAMATE DEHYDROGENASE, vehicle control = 1) was 0.99 and the “fold change vs vehicle control” value (protein TB427TMP.160.4560 ARGININE KINASE, vehicle control = 1) was 2.29. For the same compound, the “fold change vs vehicle control” value (protein TB427TMP.160.4620 INOSITOL-1(OR 4)-MONOPHOSPHATASE, PUTATIVE, vehicle control = 1) was 1.07, the “fold change vs vehicle control” value (protein TB427TMP.160.4630 HY[…], CONSERVED, vehicle control = 1) was 1 and the fold change (protein TB427TMP.160.4770 PROTEIN KINASE, PUTATIVE, vehicle control = 1) was 0.91. It also gave a fold change (protein TB427TMP.160.4910 FLAVOPROTEIN MONOOXYGENASE, PUTATIVE, vehicle control = 1) of 0.97, a fold change (protein TB427TMP.160.5670 HY[…], CONSERVED, vehicle control = 1) of 0.81 and a fold change (protein TB427TMP.211.2730 GIM5A PROTEIN, vehicle control = 1) of 1.23. For the same compound, the “fold change vs vehicle control” value (protein TB427TMP.211.3140 HY[…], CONSERVED, vehicle control = 1) was 1.57, the “fold change vs vehicle control” value (protein TB427TMP.211.3510 ATP-DEPENDENT DEAD/H RNA HELICASE, PUTATIVE, vehicle control = 1) was 0.96 and the “fold change vs vehicle control” value (protein TB427TMP.22.0003 PHOSPH[…], PUTATIVE, vehicle control = 1) was 0.99. The fold change (protein TB427TMP.46.0001 60S ACIDIC RIBOSOMAL SUBUNIT PROTEIN, PUTATIVE, vehicle control = 1) was 0.96, the fold change (protein TB427TMP.47.0011 HY[…], CONSERVED, vehicle control = 1) was 0.89 and the “fold change vs vehicle control” value (protein TB427TMP.55.0006 INTR[…] PROTEIN IFT88, vehicle control = 1) was 1.07. The “fold change vs vehicle control” value (protein TB427TMP.57.0008 CALPAIN-LIKE PROTEIN, PUTATIVE, vehicle control = 1) was 0.86, the “fold change vs vehicle control” value (protein TB427.01.120 RETRO[…] SPOT (RHS) PROTEIN, PUTATIVE, vehicle control = 1) was 0.97 and the fold change (protein TB427.01.2570 COATOMER BETA SUBUNIT, vehicle control = 1) was 0.97. For the same compound, the fold change (protein TB427.01.420 RETRO[…] SPOT (RHS) PROTEIN, PUTATIVE, vehicle control = 1) was 1.1, the “fold change vs vehicle control” value (protein TB427.02.3880 HET[…] RIBONUC[…]/F, PUTATIVE, vehicle control = 1) was 1.3 and the “fold change vs vehicle control” value (protein TB427.02.5800 SEDOHEPTULOSE-1,7-BISPHOSPHATASE, vehicle control = 1) was 1.36. For the same compound, the “fold change vs vehicle control” value (protein TB427.02.6050 BETA PRIME COP PROTEIN, vehicle control = 1) was 1.34, the fold change (protein TB427.03.1790 PYRUVATE DEHYDROGENASE E1 BETA SUBUNIT, PUTATIVE, vehicle control = 1) was 0.98 and the “fold change vs vehicle control” value (protein TB427.03.3160 POLY(A) POLYMERASE, vehicle control = 1) was 1.23. For the same compound, the “fold change vs vehicle control” value (protein TB427.03.3950 HY[…], CONSERVED, vehicle control = 1) was 0.86, the “fold change vs vehicle control” value (protein TB427.03.4040 HY[…], CONSERVED (Ankyrinrepeat), vehicle control = 1) was 3.1 and the fold change (protein TB427.04.1300 HY[…], CONSERVED, vehicle control = 1) was 1.3. The “fold change vs vehicle control” value (protein TB427.04.1510 PHOSPHOLIPID-TRA[…], PUTATIVE, vehicle control = 1) was 0.95, the “fold change vs vehicle control” value (protein TB427.04.1660 MIT[…] PROTEIN, PUTATIVE, vehicle control = 1) was 1 and the fold change (protein TB427.04.310 HY[…], CONSERVED, vehicle control = 1) was 0.93. For the same compound, the fold change (protein TB427.04.420 PHOSPHATIDYLINOSITOL 3-KINASE (TOR2), vehicle control = 1) was 0.74, the fold change (protein TB427.04.450 COATOMER ALPHA SUBUNIT, PUTATIVE, vehicle control = 1) was 1.1 and the fold change (protein TB427.04.5010 CALRETICULIN, PUTATIVE, vehicle control = 1) was 2.06. For the same compound, the fold change (protein TB427.04.5200 NUCLEOPORIN (NUP54/57), PUTATIVE, vehicle control = 1) was 0.9, the fold change (protein TB427.05.1210 SHORT-CHAIN DEHYDROGENASE, PUTATIVE, vehicle control = 1) was 1.33 and the “fold change vs vehicle control” value (protein TB427.05.1320 HY[…], CONSERVED, vehicle control = 1) was 1.07. The “fold change vs vehicle control” value (protein TB427.05.1700 R[…] A 28 KDA SUBUNIT, PUTATIVE, vehicle control = 1) was 1.31, the “fold change vs vehicle control” value (protein TB427.05.3260 HY[…], CONSERVED, vehicle control = 1) was 0.99 and the fold change (protein TB427.05.3400 CALCIUM-TRA[…]-TYPE ATPASE, vehicle control = 1) was 1.28. The “fold change vs vehicle control” value (protein TB427.05.4560 GUANINE DEAMINASE, PUTATIVE, vehicle control = 1) was 0.95, the “fold change vs vehicle control” value (protein TB427.06.1500 ALKYL-DIHYDR[…] SYNTHASE, vehicle control = 1) was 0.97 and the fold change (protein TB427.06.3500 ENDOSOMAL T[…] RME-8, PUTATIVE, vehicle control = 1) was 0.71.

— PMC6199744, “Development of Chemical Proteomics for the Folateome and Analysis of the Kinetoplastid Folateome” (ACS Infectious Diseases, 2018)
